# Results reported in patent US20240122844A1, “CARRIER FOR SUSTAINED-RELEASE OF DRUG AND USE THEREOF” (KUNMING QINGCHENG HEALTHCARE TECH LTD., priority 2022, published 2024).
# Where a name gives a salt, the structure may show the parent alone.
# Test: Sustained release of metformin hydrochloride, ranitidine hydrochloride, vitamin B1 and benzalkonium chloride from carrier formulations into purified water, UV absorbance
# Type: physicochemical
# Settings: released when absorbance is increased less than 0.01
# Text: • 1) Test samples: formulation 5, formulation 6, formulation 7, formulation 8, formulation 9; • 2) Drug release medium: purified water (Wahaha®).
# • 1) group F where the sample is 0.1990 g of formulation 6 and the medium is 30.11 g of purified water; • 2) group G where the sample is 0.2016 g of formulation 5 and the medium is 30.14 g of purified water; • 3) group H where the sample is 0.2087 g of formulation 7 and the medium is 30.11 g of purified water; • 4) group I where the sample is 0.2016 g of formulation 8 and the medium is 30.12 g of purified water; • 5) group J where the sample is 0.0975 g of formulation 9 and the medium is 30.18 g of purified water.
# • 1) The test samples with different formulations were respectively introduced into 2 mL-syringes. 2) About 0.2 g of the test samples, but for benzalkonium chloride about 0.1 g of the test sample, were squeezed out from the syringes without a needle into 30 mL transparent bottles respectively. The tests samples in the bottles were accurately weighed. 3) 30.0 g of the drug release medium was added to each bottle. 4) The absorbance spectrum of the liquid in each bottle was scanned and the absorbance at the wavelength of 232 nm for metformin hydrochloride, 313 nm for ranitidine hydrochloride, 261 nm for vitamin B1, or 219 nm for benzalkonium chloride was measured every 24 hours. 5) In groups H, I and J, the purified water (Wahaha®) was used as the reference solution. In groups F and G, blank carriers in formulations 2 and 3 without metformin hydrochloride were used to prepare the reference solutions according to the above steps 1) to 3) of “4. Experimental method”. The liquids to be tested and the reference solutions of groups F and G were taken from the bottles with the carriers and put back to the bottles after the spectral scanning.
row,Compound,Duration of release of the drug from the sustained-release carriers
1,CNC(=C[N+](=O)[O-])NCCSCc1ccc(CN(C)C)o1 [ranitidine hydrochloride],about 4 days
2,Cc1ncc(C[n+]2csc(CCO)c2C)c(N)n1 [vitamin B1],about 4 days
3,benzalkonium chloride,about 4 days
4,CN(C)C(=N)N=C(N)N [metformin hydrochloride],about 3 days
